According to PubChem BioAssay (NCI):
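Cells were grown in 96-well plates and exposed to each compound for 48 hours at five concentrations; endpoints were interpolated linearly between bracketing concentrations, or set to the highest concentration if not reached. The concentration for full growth arrest is given as TGI.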

How the values were obtained:
Experiment in all cases: NCI tumour cell line growth inhibition, 48 h
MCF7 breast = system: MCF7 breast
T-47D breast = system: T-47D breast
HL-60(TB) leukemia = system: HL-60(TB) leukemia
NCI-H522 lung = system: NCI-H522 lung
BT-549 breast = system: BT-549 breast
EKVX NSCLC = system: EKVX NSCLC
SF-539 CNS = system: SF-539 CNS
COLO 205 colon = system: COLO 205 colon
OVCAR-3 ovarian = system: OVCAR-3 ovarian
TK-10 renal = system: TK-10 renal
NCI/ADR-RES ovarian = system: NCI/ADR-RES ovarian
NCI-H460 lung = system: NCI-H460 lung
UACC-257 melanoma = system: UACC-257 melanoma
HCT-15 colon = system: HCT-15 colon
SK-OV-3 ovarian = system: SK-OV-3 ovarian
DU-145 prostate = system: DU-145 prostate
MALME-3M melanoma = system: MALME-3M melanoma
SF-295 CNS = system: SF-295 CNS
NCI-H23 lung = system: NCI-H23 lung
SK-MEL-28 melanoma = system: SK-MEL-28 melanoma
UO-31 renal = system: UO-31 renal
SNB-19 CNS = system: SNB-19 CNS
OVCAR-5 ovarian = system: OVCAR-5 ovarian
MDA-N = system: MDA-N
786-0 renal = system: 786-0 renal
SN12C renal = system: SN12C renal
HS 578T breast = system: HS 578T breast
HOP-62 NSCLC = system: HOP-62 NSCLC
MDA-MB-231 breast = system: MDA-MB-231 breast
MDA-MB-435 = system: MDA-MB-435
IGROV1 ovarian = system: IGROV1 ovarian
NCI-H226 lung = system: NCI-H226 lung
CAKI-1 renal = system: CAKI-1 renal
SK-MEL-5 melanoma = system: SK-MEL-5 melanoma
KM12 colon = system: KM12 colon
SNB-75 CNS = system: SNB-75 CNS
A498 renal = system: A498 renal
PC-3 prostate = system: PC-3 prostate
OVCAR-4 ovarian = system: OVCAR-4 ovarian
LOX IMVI melanoma = system: LOX IMVI melanoma
HCT-116 colon = system: HCT-116 colon
UACC-62 melanoma = system: UACC-62 melanoma
ACHN renal = system: ACHN renal
SR leukemia = system: SR leukemia
HT29 colon = system: HT29 colon
U251 CNS = system: U251 CNS
SK-MEL-2 melanoma = system: SK-MEL-2 melanoma
M14 melanoma = system: M14 melanoma
HCC-2998 colon = system: HCC-2998 colon
RPMI-8226 leukemia = system: RPMI-8226 leukemia
SF-268 CNS = system: SF-268 CNS
SW-620 colon = system: SW-620 colon
MOLT-4 leukemia = system: MOLT-4 leukemia
RXF 393 renal = system: RXF 393 renal
OVCAR-8 ovarian = system: OVCAR-8 ovarian
HOP-92 NSCLC = system: HOP-92 NSCLC
A549 NSCLC = system: A549 NSCLC

COc1ccc(C(=C2C(=O)OC(=O)C2=C(C)C)c2ccc(OC)cc2)cc1
TGI (MCF7 breast): > 100 µM
TGI (T-47D breast): > 100 µM
TGI (HL-60(TB) leukemia): 84.3 µM
TGI (NCI-H522 lung): 55.7 µM
TGI (BT-549 breast): > 100 µM
TGI (EKVX NSCLC): > 100 µM
TGI (SF-539 CNS): > 100 µM
TGI (COLO 205 colon): > 100 µM
TGI (OVCAR-3 ovarian): 47.5 µM
TGI (TK-10 renal): > 100 µM
TGI (NCI/ADR-RES ovarian): > 100 µM
TGI (NCI-H460 lung): > 100 µM
TGI (UACC-257 melanoma): > 100 µM
TGI (HCT-15 colon): > 100 µM
TGI (SK-OV-3 ovarian): > 100 µM
TGI (DU-145 prostate): > 100 µM
TGI (MALME-3M melanoma): > 100 µM
TGI (SF-295 CNS): > 100 µM
TGI (NCI-H23 lung): > 100 µM
TGI (SK-MEL-28 melanoma): > 100 µM
TGI (UO-31 renal): > 100 µM
TGI (SNB-19 CNS): > 100 µM
TGI (OVCAR-5 ovarian): > 100 µM
TGI (MDA-N): > 100 µM
TGI (786-0 renal): > 100 µM
TGI (SN12C renal): > 100 µM
TGI (HS 578T breast): > 100 µM
TGI (HOP-62 NSCLC): > 100 µM
TGI (MDA-MB-231 breast): > 100 µM
TGI (MDA-MB-435): > 100 µM
TGI (IGROV1 ovarian): > 100 µM
TGI (NCI-H226 lung): > 100 µM
TGI (CAKI-1 renal): > 100 µM
TGI (SK-MEL-5 melanoma): > 100 µM
TGI (KM12 colon): > 100 µM
TGI (SNB-75 CNS): > 100 µM
TGI (A498 renal): > 100 µM
TGI (PC-3 prostate): > 100 µM
TGI (OVCAR-4 ovarian): 92.5 µM
TGI (LOX IMVI melanoma): > 100 µM
TGI (HCT-116 colon): > 100 µM
TGI (UACC-62 melanoma): > 100 µM
TGI (ACHN renal): > 100 µM
TGI (SR leukemia): > 100 µM
TGI (HT29 colon): > 100 µM
TGI (U251 CNS): > 100 µM
TGI (SK-MEL-2 melanoma): > 100 µM
TGI (M14 melanoma): > 100 µM
TGI (HCC-2998 colon): > 100 µM
TGI (RPMI-8226 leukemia): > 100 µM
TGI (SF-268 CNS): > 100 µM
TGI (SW-620 colon): > 100 µM
TGI (MOLT-4 leukemia): > 100 µM
TGI (RXF 393 renal): > 100 µM
TGI (OVCAR-8 ovarian): > 100 µM
TGI (HOP-92 NSCLC): > 100 µM
TGI (A549 NSCLC): > 100 µM
